The values that follow are results of earlier work, collected in patent publication US5198463A, “Oxytocin antagonists” (Merck & Co., Inc., priority 1992, dated 1993).

This series has as its system Chinese cabbage seedlings. To be noted: reported by T. Sassa et al.

Consider `COc1c(C(O)CC(C)C)ccc2c1C(=O)OCc1cc(C)cc(O)c1O2` (stereo not shown) [Compound IA, penicillide], for which the “growth of Chinese cabbage seedlings” value is recorded as “markedly inhibits the growth”.
